From ChEMBL document CHEMBL1130105 (J Med Chem, 1997)

Target: T1, Cholecystokinin receptor type A (Rattus norvegicus, UniProt P30551)
T1 sequence (P30551 whole entry): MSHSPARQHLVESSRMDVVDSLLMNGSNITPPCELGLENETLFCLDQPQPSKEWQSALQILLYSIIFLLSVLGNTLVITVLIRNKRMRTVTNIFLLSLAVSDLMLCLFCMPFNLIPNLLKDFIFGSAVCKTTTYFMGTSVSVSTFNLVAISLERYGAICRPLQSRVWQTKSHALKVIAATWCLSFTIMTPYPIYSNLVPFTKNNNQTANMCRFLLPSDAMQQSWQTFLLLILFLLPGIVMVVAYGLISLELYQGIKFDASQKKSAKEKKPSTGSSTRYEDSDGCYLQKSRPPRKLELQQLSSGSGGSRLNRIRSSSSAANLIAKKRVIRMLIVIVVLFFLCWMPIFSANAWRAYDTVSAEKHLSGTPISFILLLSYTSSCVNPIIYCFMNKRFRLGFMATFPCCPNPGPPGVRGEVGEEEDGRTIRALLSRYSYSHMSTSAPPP
Assay: Inhibition of ligand binding to Cholecystokinin type A receptor from rat pancreatic tissue.

| IC50 | SMILES |
| --- | --- |
| 1.39 µM | Cc1cccc(NC(=O)N[C@@H]2N=C([C@H]3CCC(C)(C)CCN3)c3ccccc3N(C)C2=O)c1 |
| 3 µM | CCCN1C(=O)[C@H](NC(=O)Nc2cccc(C)c2)N=C([C@@H]2CCCCN2)c2ccccc21 |
| 6.49 µM | CN1C(=O)[C@H](NC(=O)Nc2ccc3c(c2)CCC3)N=C([C@H]2CCC(C)(C)CCN2)c2ccccc21 |
| 3.09 µM | CCCN1C(=O)[C@H](NC(=O)Nc2cccc(C)c2)N=C([C@H]2CC(C)(C)CCN2)c2ccccc21 |
| 3 µM | CCCN1C(=O)[C@H](NC(=O)Nc2cccc(C)c2)N=C([C@H]2CCCCN2)c2ccccc21 |
| 3.54 µM | CCCN1C(=O)[C@H](NC(=O)Nc2cccc(C)c2)N=C([C@H]2CCC(C)(C)CCN2C)c2ccccc21 |

| SMILES | IC50 |
| --- | --- |
| CCCN1C(=O)[C@H](NC(=O)Nc2cccc(C)c2)N=C([C@H]2CCC(C)(C)CCN2)c2ccccc21 | 1.51 µM |
| CCCN1C(=O)[C@H](NC(=O)Nc2cccc(C)c2)N=C([C@H]2CCCCN2C)c2ccccc21 | 2.09 µM |
| CCN(CC)C(=O)CN1C(=O)[C@H](NC(=O)Nc2cccc(C)c2)N=C(c2cccc[n+]2C)c2ccccc21 | 1.75 µM |
| CCCN1C(=O)[C@H](NC(=O)Nc2ccc3c(c2)CCC3)N=C([C@H]2CC(C)(C)CCN2)c2ccccc21 | 4.02 µM |

Target: Gastrin/cholecystokinin type B receptor (Cavia porcellus)
Assay: Inhibition of ligand binding to Cholecystokinin type B receptor from guinea pig cortical membrane.

| SMILES | IC50 |
| --- | --- |
| CCN(CC)C(=O)CN1C(=O)C(NC(=O)Nc2cccc(C)c2)N=C(c2ccccn2)c2ccccc21 (configuration not stated) | 0.56 nM |
| Cc1cccc(NC(=O)NC2N=C(c3ccccn3)c3ccccc3N(C)C2=O)c1 (configuration not stated) | 66 nM |
